Laboratory results taken from patent publication US20020061862A1, “Inducible nitric oxide synthase for treatment of disease” (University of Pittsburgh of the Commonwealth System of …, priority 1992, published 2002).

Assays:
[1] = system: sheep pulmonary artery endothelial cells (SPAEC); type: cell-based; conditions: L-NMA 0.5 mM, BH4 100 μM
3T3-iNOS cells = assay: NO2- production (iNOS activity) in transfected 3T3-iNOS cells; type: cell-based, murine; conditions: MTX 12.5 μM
Protocol: Cells were passaged to 6 well plates at a density of 1×10^5 cells/well 24 h prior to transfection. For 3T3 cells, each well of cells was transfected with a mixture of 1 μg plasmid DNA and 6 μg of Lipofectamine (GIBCO) in OPTIMEM-I media for 5 h. For RSMC, a ratio of 1 μg DNA to 7 μl of Lipofectamine was used. Following the incubation period, the transfection solution was removed and normal growth medium replaced. The transfection efficiency was estimated by X-gal staining of pIEP-lacZ transfected cells. All studies were performed at 24-72 h post-transfection.
Twenty four hours following transfection, the cell medium was then replaced with fresh medium and the cells were cultured for an additional 24 h at which time the supernatants were assayed for accumulated NO2 using the Griess reaction (Geller, et al., 1993, Proc. Natl. Acad. Sci. USA: 90:522-526). Measurements were also performed in the presence of L-NMA (1 mM), BH4 (100 μM), and methotrexate (MTX 12.5 μM). The cells were lysed with 0.1 M NaOH and the protein concentration was quantified with the BCA protein assay. To assess the requirement for compression of GTPCH and iNOS in the same cell, 3T3 cells were transfected with either pIEPlacZ or pCIS-GTPCH. […] Cells were allowed to attach overnight and NO2− levels were measured 24 h later.

[2] = system: ecNOS mRNA and protein in SPAEC; assay: Northern and Western blot for ecNOS expression in SPAEC; type: cell-based, sheep; conditions: 1 mM, 6 h, versus SPAEC treated with the parent compound
Protocol: Aliquots (20 μg) of RNA were electrophoresed on a 0.9% agarose gel and blotted to GeneScreen (DuPontNEN; Boston, Mass.). After prehybridization, the membranes were hybridized to a DNA probe as described (Geller, et al., 1993, Proc. Natl. Acad. Sci. USA 90:522-526). A 2.3 kb human iNOS cDNA fragment served as the iNOS probe while a 4.1 kb human endothelial cNOS cDNA fragment served as the ecNOS probe. 18S rRNA served as a control for relative RNA loading.
The cells were lysed by three freeze-thaw cycles, and the cytosolic fraction was isolated by centrifugation at 100,000×g for 60 min at 4° C. as previously described (Luss, et al., 1994, Biochem. Biophys. Res. Comm. 204-2: 635-640). Protein concentrations were measured with the BCA protein assay (Pierce; Rockford, Ill.). For whole cell preparations, a similar procedure was performed without the centrifugation step.
Cell cytosols (100μg) were electrophoresed through an 8% SDS-polyacrylamide gel and transferred to nitrocellulose membranes (Schleicher Schuell; Keene, N.H.) as described (Laemmli, 1970, Nature 227: 680-685). […]

Q: For CNC(=N)NCCC[C@H](N)C(=O)O [L-NMA, N^G-monomethyl-L-arginine], which “effect of agent added to culture medium on nitrogen oxide synthesis / NO2^− production of SPAEC/DFG-iNOS-Neo” value [1] is on record?
A: inhibited

Q: CN(Cc1cnc2nc(N)nc(N)c2n1)c1ccc(C(=O)N[C@@H](CCC(=O)O)C(=O)O)cc1 [MTX, methotrexate] was tested. Which “reduction of iNOS activity recovered by BH4 supplementation” value (3T3-iNOS cells; 3T3-iNOS, FIG. 23) did it give?
A: over 5 fold

Q: And the “reduction of iNOS activity” value (3T3-iNOS cells; pCIS-GTPCH transfected 3T3iNOS cells)?
A: 50%

Q: For CC(=O)N[C@H](C(=O)O)C(C)(C)SN=O [SNAP, S-nitroso-N-acetyl-penicillamine], which “increase in ecNOS mRNA” value [2] is on record?
A: 1.5 fold
